From patent US20210393785A1, “Nucleic acid nanocarrier drug and preparation method thereof” (BAI YAO ZHI DA (BEIJING) NANOBIO TECHNOLOGY CO., LTD., priority 2018, published 2021)
“And” between values parts separate entries of the source, which are not always exact repeats. Equal values may be shown once.

What was measured:
LN-229 cells = experiment: Cytotoxicity in LN-229 cells; assay type: cell-based; conditions: 96 hours
Method: 2) adjusting the cell density to 2.22×10^4/mL with a growth medium;
6) taking out the cell culture plate, and adding 10 μL/well of 10× concentration drug working solution to the corresponding wells of the cell culture plate, herein three replicate holes are made for each concentration, and the final drug action concentration is shown in Table 46 below;
8) placing the CellTiter 96® AQueous One Solution reagent at the room temperature and thawing for 90 minutes or thawing in a water bath at 37 DEG C., and then equilibrating at the room temperature for 30 minutes;
9) adding 50 μL/well of the CellTiter 96® AQueous One Solution reagent to the cell culture plate; […]
11) using the microplate reader to read a OD490 value of each well in the cell plate; and […]

HepG2 cells [1] = experiment: Cytotoxicity in HepG-2 cells (CellTiter-Glo); assay type: cell-based, human; conditions: 96 hours
Method: 1) Harvesting cells in a logarithmic growth phase, taking a small amount and staining with trypan blue for counting to ensure that the cell viability reaches more than 80%;
(§1) 3) planting 90 μL/well of cell suspension into the 96-well plate, herein the number of cells per well in the plate is 2000;
4) placing the planted cell plate in the incubator at 37 DEG C. and incubating overnight under conditions of 5% CO2 and 95% humidity;
(§2) 5) performing 3.16-fold gradient dilution on the compound at 9 concentration points;
6) taking out the cell culture plate, and adding 10 μL/well of 10× concentration drug working solution to the corresponding wells of the cell culture plate, herein three replicate holes are made for each concentration, and the final drug action concentration is shown in Table 56 below;
(§3) 7) placing the cell culture plate in the incubator and continuously incubating for 96 hours;
8) placing the CellTiter-Glo reagent and the drug treatment cell culture plate at the room temperature and equilibrating for 30 minutes;
9) adding 50 μL of the CellTiter-Glo reagent to each well;
10) shaking in the orbital shaker for 2 minutes so that the cells are adequately lysed;
11) placing the cell culture plate at the room temperature and equilibrating for 10 minutes, reading a chemiluminescence value by using EnVision; and
12) data processing and analysis.
GraphPad Prism 5.0 software is used to process data graphically. Nonlinear S-curve regression is used to fit the data to obtain a dosage-effect curve, and an IC50 value is calculated from this.
Cell survival rate (%)=(Lumdrug to be tested−Lummedium control)/(Lumcell control−Lummedium control)×100%.
Lumcell control-Lummedium control is set to 100%, and a LumMedium control value is set to 0%.

Hela cells = experiment: Cytotoxicity in Hela cells (CellTiter 96 AQueous One, OD490); assay type: cell-based; conditions: Homo sapiens, 72 hours
Method: (§4) 1) Harvesting cells in a logarithmic growth phase, taking a small amount and staining with trypan blue for counting to ensure that the cell viability reaches more than 98%;
3) planting 90 μL/well of cell suspension into the 96-well plate, herein the number of cells per well in the plate is 5000;
(§5) 4) placing the planted cell plate in the incubator at 37 DEG C. and incubating overnight;
as §2
6) taking out the cell culture plate, and adding 10 μL/well of 10× concentration drug working solution to the corresponding wells of the cell culture plate, herein three replicate holes are made for each concentration, and the final drug action concentration is shown in Table 66 below;
7) placing the cell culture plate in the incubator and continuously incubating for 72 hours;
8) placing the CellTiter 96® AQueous One Solution reagent at the room temperature and thawing for 90 minutes or thawing in a water bath at 37 DEG C., placing at the room temperature and equilibrating for 30 minutes; […]
(§6) 11) using a microplate reader to read a OD490 value of each well in the cell plate; and […]
(§7) GraphPad Prism 5.0 software is used to process data graphically. […] A calculation formula of the survival rate is as follows, the IC50 may be automatically calculated in GraphPad Prism 5.0. […]

SGC-7901 cells = experiment: Cytotoxicity in SGC-7901 cells (CellTiter 96 AQueous One, OD490); assay type: cell-based, human; conditions: 96 hours
Method: as §4, §1, §5, §2
6) taking out the cell culture plate, and adding 10 μL/well of 10× concentration drug working solution to the corresponding wells of the cell culture plate, herein three replicate holes are made for each concentration, and the final drug action concentration is shown in Table 76 below;
as §3
8) placing the CellTiter 96® AQueous One Solution reagent at the room temperature and thawing for 90 minutes or thawing in a water bath at 37 DEG C., and placing at the room temperature and equilibrating for 30 minutes; […]
as §6, §7

HepG2 cells [2] = experiment: CCK8 toxicity of DNA nanoparticles and carrier drugs to HepG2; assay type: cell-based; conditions: Homo sapiens, 72 hours
Method: A CCK8 method is used to detect the toxicity of DNA nanoparticles and carrier drugs to HepG2.
1. HepG2 cells in a logarithmic growth phase are taken, trypan blue is used for staining and the cell viability is counted to be 98.3%, plating is performed with 5000 Cell/well, a volume is 100 μL/well, 8 96-well plates are paved with 57 wells per plate, and it is incubated overnight at 37 DEG C.
2. A sample to be tested is diluted according to the following table and added: the original culture medium is removed and 100 μL of a culture medium of the sample to be tested with the different concentration is added, and there are 3 replicate wells in each group.
In the present embodiment, the loaded drug and the blank carrier are firstly prepared into 100 μM of stock solution by using the PBS, and then diluted with the complete culture medium (biotin-free DMEM). The original drug doxorubicin is firstly prepared into 100 μM of stock solution by the DMSO, and then diluted with the complete culture medium (biotin-free DMEM). The DMSO is directly diluted with the complete medium (biotin-free DMEM).
3. […]
6. A microplate reader is used to measure an absorbance at 450 nm.
7. Calculation: cell viability (%)=(OD experimental group-OD blank group)×100%/(OD control group-OD blank group), IC50 is calculated by Graph Pad Prism 5.0.

[3] = Particle size measurement (DLS hydrodynamic size); assay type: physicochemical
Excerpt: 1. Preparing a potential sample (conventional-sequence DNA self-assembly product D-7) and putting into a sample pool, opening a sample pool cover of an instrument, and placing the instrument; […]
4. clicking Ok to complete the settings, while a measurement dialog box appears, clicking Start to start, a DLS measurement value result of a hydrodynamic size of the self-assembly product D-7 is as follows: […]

Molecule: N.N.[Cl][Pt][Cl] [Cisplatin]
- IC50 (LN-229 cells): 12.5 µM
- IC50 (HepG2 cells [1]): 3.99 µM
- Inhibition rate of cell proliferation at highest concentration itself (HepG2 cells [1]; highest concentration of each sample (Table 56: 100 μM, DNAh-Bio-Cy5 4.9 μM)): 99.36%

Molecule: C[C@H]1[C@@H](O)O[C@@H]2O[C@@]3(C)CC[C@H]4[C@H](C)CC[C@@H]1[C@@]24OO3 [DHA (dihydroartemisinin), Dihydroartemisinin]
- IC50 (LN-229 cells; Homo sapiens): 20.2 µM

Molecule: O=c1cc(-c2ccccc2)oc2ccccc12 [Flavone]
- IC50 (Hela cells): 12.6 µM

Molecule: O=C1[O][Pt]2([NH][C@@H]3CCCC[C@H]3[NH]2)[O]C1=O [Oxaliplatin]
- IC50 (SGC-7901 cells): 55.8 µM

Molecule: CC[C@]1(O)C[C@H]2CN(CCc3c([nH]c4ccccc34)[C@@](C(=O)OC)(c3cc4c(cc3OC)N(C=O)[C@H]3[C@@](O)(C(=O)OC)[C@H](OC(C)=O)[C@]5(CC)C=CCN6CC[C@]43[C@@H]65)C2)C1 [Vincristine]
- IC50 (HepG2 cells [1]; Homo sapiens): 1.68 µM
- inhibition at 100 µM (HepG2 cells [1]; Homo sapiens, highest concentration of each sample (Table 56: 100 μM, DNAh-Bio-Cy5 4.9 μM), read-out: Inhibition rate of cell proliferation at highest concentration itself): 70.7%

Molecule: COc1cccc2c1C(=O)c1c(O)c3c(c(O)c1C2=O)C[C@@](O)(C(=O)CO)C[C@@H]3O[C@H]1C[C@H](N)[C@H](O)[C@H](C)O1 [doxorubicin]
- IC50 (HepG2 cells [2]): 0.273 µM

B1: D-7: conventional-sequence DNA nanoparticles, SEQ ID NO:117-119, no target head, thio modification (nucleic acid)
chain 1: CGCGCGCCCACGAGCGTTGCGGGCGCCGC
chain 2: GCGGCGCCCGCTTCGGCGGCAGGCGGC
chain 3: GCCGCCAGCCGCCCATAGCCGTGGGCGCGCG
modifications: DNA, backbone not given here; phosphorothioate (thio) modified DNA nanoparticle, further chemistry not fully specified
- Particle size Z-Ave, Experiment result ([3]; result over the 3 detections): 12.33 d · nm (±1.57 d · nm)
- Particle size Z-Ave ([3]; single detections 1-3, DLS hydrodynamic size): 10.76 nm·days and 13.9 nm·days and 10.36 nm·days
